Source: paper PMC12461739, “Multi-targeted azacoumarin–cyanocinnamate hybrids induce G2/M arrest and apoptosis via tubulin, and COX-2/VEGFR modulation: insights from in vitro mechanistic basis and in vivo validation” (RSC Medicinal Chemistry, 2025)

How the values were obtained:
Bax = assay: qRT-PCR gene expression, Bax; assay type: cell-based, human; details: MCF-7, 7.653 μM, 24 h
Procedure: Untreated cells served as negative controls. RNA concentration and purity were verified spectrophotometrically prior to cDNA synthesis. Complementary DNA (cDNA) was synthesized from purified RNA using the RT^2 First Strand Kit (Qiagen, Valencia, CA, USA) following the supplied protocol. Quantitative real-time PCR (qRT-PCR) was performed on a Corbett Rotor-Gene 6000 system (Qiagen, USA) using the RT^2 SYBR® Green ROX™ FAST Master Mix (Qiagen). Each 25 μL reaction contained 12.5 μL of master mix, 1 μL of gene-specific primers (RT^2 qPCR Primer Assays, Qiagen), 1 μL of cDNA template, and 10.5 μL of RNase-free water. Gene-specific primers were selected using the PrimerBank database for BAX, BCL2, and TP53, along with GAPDH as the endogenous control (Table S3). Thermal cycling conditions were set as follows: initial enzyme activation at 95 °C for 10 minutes, followed by 40 cycles of denaturation at 95 °C for 15 seconds, and annealing at 60 °C for 30 seconds. Amplification specificity was confirmed by melting curve analysis. Gene expression levels were normalized to GAPDH mRNA as the internal reference, and relative quantification was performed using the ΔΔCt method. […] Statistical analysis was performed using GraphPad Prism software, with p < 0.05 considered statistically significant.[79]

[1] = Hepatic oxidative stress markers (GSH, CAT, SOD, MDA)
Procedure: All animals were maintained under conventional laboratory conditions, including a controlled temperature of 22 ± 2 °C and a 12 hour light/dark photoperiod, with continuous access to standard pellet chow and water. On day 11, following the final treatment, ascitic fluid was collected from the peritoneal cavity using heparinized syringes for EAC cell viability and count analysis. Blood samples were collected under light ether anesthesia via the retro-orbital venous plexus and centrifuged at 3000 rpm for 10 minutes. The resulting serum was separated and stored at −20 °C for biochemical analysis. Additionally, liver and kidney tissues were excised from each animal for further evaluation. Each organ was divided into two parts: one portion was rinsed with ice-cold phosphate-buffered saline (PBS, pH 7.4) and stored at −20 °C for preparation of tissue homogenates used in biochemical assays. The second portion was fixed in 10% neutral buffered formalin for histopathological examination to assess tissue morphology and damage.[96,97]
Liver tissues were homogenized in an appropriate lysis buffer and centrifuged to obtain the supernatant. Samples were loaded into ELISA plates pre-coated with catalase-specific antibodies and incubated at 37 °C. After washing steps, a biotinylated detection antibody and horseradish peroxidase (HRP)-conjugated secondary antibody were sequentially added. The reaction was developed using a tetramethylbenzidine (TMB) substrate and stopped with sulfuric acid. Absorbance was measured at 450 nm using a microplate reader, and results were expressed as units per gram of tissue (U g^−1 tissue). All samples were run in triplicate, and data were reported as mean ± SD.
The assay employed a double-antibody sandwich ELISA technique, where wells are pre-coated with MDA-specific monoclonal antibodies. Liver tissue homogenate samples were added to the wells and incubated to allow specific antigen–antibody binding. After washing, a biotin-labeled polyclonal detection antibody was added, followed by an avidin–HRP conjugate. The enzymatic reaction was developed using a TMB substrate, yielding a colorimetric change proportional to the MDA concentration. The reaction was stopped with acid, and absorbance was measured at 450 nm using a microplate reader. Results were expressed as nanomole per gram of tissue (nmol g^−1 tissue). All measurements were performed in triplicate, and results are presented as mean ± SD.
The assay employs a sandwich ELISA technique in which GSH in the samples binds to monoclonal antibodies pre-coated on microplate wells. Following this, an HRP-conjugated detection antibody was added, and the plate was incubated at 37 °C for 1 hour. After several washing steps to remove unbound reagents, a TMB substrate solution was added, allowing the enzymatic colorimetric reaction to develop. The reaction was stopped with an acidic solution, and absorbance was measured at 450 nm using a microplate reader. The resulting color intensity was directly proportional to the GSH concentration in the sample, and results were expressed as picogram per gram of tissue (pg g^−1 tissue). All samples were assayed in triplicate, and results are reported as mean ± SD.
The assay employed a sandwich ELISA format, in which SOD present in the tissue homogenates binds to a specific monoclonal antibody pre-coated on microplate wells. After sample incubation at 37 °C for 60 minutes, an HRP-conjugated secondary antibody was added. Following thorough washing, the enzymatic reaction was initiated with a TMB substrate and stopped with an acidic solution, resulting in a measurable color change. Absorbance was recorded at 450 nm using a microplate reader, and results were expressed as units per gram of tissue (U g^−1 tissue). All samples were run in triplicate, and data were reported as mean ± SD.

[2] = tested on: Ehrlich ascites carcinoma (EAC) cells; assay: EAC model: viable EAC cell count and ascitic tumor volume; details: for total viable EAC cell count: 10 days
Procedure: To evaluate tumor burden in the experimental groups, ascitic fluid was collected from the peritoneal cavity using a sterile, graduated syringe. The volume of ascitic fluid was recorded for each animal. The collected fluid was then diluted with heparinized saline for viable cell counting. Cell viability and density were determined using the trypan blue exclusion method. A 0.4% (w/v) trypan blue solution was prepared by dissolving 0.4 g of dye in 100 mL of sterile distilled water and filtering it through a 0.22 μm membrane filter. Prior to counting, 10 μL of the ascitic cell suspension was mixed with an equal volume of trypan blue and incubated at room temperature for 2 minutes. Cells were loaded onto a hemocytometer (Thoma type, Germany) and examined under a light microscope at 40× magnification. Non-viable cells stained blue, whereas viable cells remained unstained. All measurements were performed in triplicate, and the results are expressed as mean ± SD.[93]
On day 1, all groups were injected i.p. with 2.5 × 10^6 viable EAC cells in 200 μL of sterile saline. Group 1 (EAC control) received EAC cells only and no further treatment. […] The compound was administered i.p. every other day (i.e., on days 2, 4, 6, 8, and 10), for a total of five doses over a 10 day treatment period. At the end of the experiment (day 11), ascitic fluid was collected from the peritoneal cavity of each animal. The number and viability of EAC cells were assessed using the trypan blue exclusion assay. Each experiment was performed in triplicate and independently replicated on at least three separate occasions. The results were presented as mean ± SD. Statistical comparisons between groups were conducted using GraphPad Prism, with p < 0.05 considered significant.[95]
On day 11, following the final treatment, ascitic fluid was collected from the peritoneal cavity using heparinized syringes for EAC cell viability and count analysis.

MCF-7 cells = assay: Cell cycle analysis (PI flow cytometry); assay type: cell-based, human; details: MCF-7, 7.653 μM (IC50), 24 h
Procedure: Cell cycle progression was examined using a propidium iodide (PI)-based staining protocol, adapted from standard manufacturer instructions and previously described methods. MCF-7 cells were seeded at a density of 2 × 10^5 cells per well in DMEM and incubated overnight under standard conditions (37 °C, 5% CO2). […] A DMSO-treated group served as the vehicle control. After treatment, cells were collected, washed twice with cold phosphate-buffered saline (PBS), and centrifuged at 2000 rpm for 5 minutes. The pellets were fixed in pre-chilled 70% ethanol and stored at −20 °C for 2 hours. After fixation, cells were washed again with PBS, centrifuged, and resuspended in PI/RNase staining solution. Samples were incubated for 30 minutes at 37 °C in the dark to allow for RNA degradation and proper DNA staining. Flow cytometric analysis was conducted using a BD FACSCalibur™ system (BD Biosciences, USA). PI fluorescence was detected using a 488 nm excitation laser and collected through the FL2 channel (585 nm bandpass filter). Cell cycle phase distribution (G0/G1, S, and G2/M) was analyzed using dedicated software.

TNF-α = assay: Serum TNF-α ELISA
Procedure: (§1) All animals were maintained under conventional laboratory conditions, including a controlled temperature of 22 ± 2 °C and a 12 hour light/dark photoperiod, with continuous access to standard pellet chow and water. On day 11, following the final treatment, ascitic fluid was collected from the peritoneal cavity using heparinized syringes for EAC cell viability and count analysis. Blood samples were collected under light ether anesthesia via the retro-orbital venous plexus and centrifuged at 3000 rpm for 10 minutes. The resulting serum was separated and stored at −20 °C for biochemical analysis.
Briefly, 96-well microplates pre-coated with a TNF-α-specific capture antibody were loaded with standards and serum samples, followed by incubation to allow antigen binding. After washing, a biotin-labeled detection antibody was added, followed by an avidin–HRP conjugate to amplify the signal. The enzymatic reaction was developed using a TMB substrate and stopped with an acidic solution. Absorbance was measured at 450 nm using the ELISA microplate reader. TNF-α concentrations were calculated by plotting sample absorbance values against a standard curve and expressed in pg mL^−1. All measurements were performed in triplicate, and data were presented as mean ± SD.

[3] = FRAP (ferric reducing antioxidant power) assay; details: 37 °C, 60 min
Procedure: The resulting Fe^2+ forms a colored complex with the FRAP chromogenic probe, which can be quantitatively measured. The reaction mixture was prepared by combining FRAP assay buffer, FRAP probe, and FeCl3 solution as per the manufacturer's protocol. […] Absorbance was measured at 594 nm using a microplate reader after incubation at 37 °C for 60 minutes. Antioxidant activity was determined by comparing the absorbance of the samples to a standard curve generated using known concentrations of the ferrous standard provided in the kit.

VEGFR-II = assay: Serum VEGFR-II ELISA
Procedure: as §1
Serum VEGFR-2 levels were quantified using a rat VEGFR-2 ELISA kit (Cusabio®, China; Catalog No. CSB-E07348r), based on a quantitative sandwich enzyme immunoassay format. Samples were added to 96-well plates pre-coated with a monoclonal antibody specific for VEGFR-2 and incubated to enable antigen binding. After washing to remove unbound material, a biotin-conjugated detection antibody was added, followed by an avidin–HRP complex. The enzymatic reaction was developed using TMB substrate and stopped with an acidic solution. Absorbance was measured at 450 nm using a microplate reader. The VEGFR-2 concentrations in the samples were calculated using a standard curve fitted with a four-parameter logistic (4-PL) regression model and expressed in nanograms per milliliter (ng mL^−1).

[4] = Liver histopathology (H&E)
Source text: Additionally, liver and kidney tissues were excised from each animal for further evaluation. […] The second portion was fixed in 10% neutral buffered formalin for histopathological examination to assess tissue morphology and damage.[96,97]
Liver and kidney tissues were collected from all experimental groups at the end of the study and immediately fixed in 10% neutral buffered formalin. After fixation, the samples were dehydrated, embedded in paraffin, and sectioned at a thickness of 5 μm using a rotary microtome. […] Histopathological examination of renal tissue focused on identifying acute tubular injury (ATI), characterized by tubular epithelial cell flattening, necrosis, apical vacuolization, and loss of the brush border. These features were assessed using a semi-quantitative scoring system.[110] Hepatic tissue sections were evaluated for the severity of hepatocellular injury using a modified Brunt grading system, which includes assessment of hepatocyte ballooning, necrosis, inflammation, and other degenerative changes.

MDA-MB 231 cells = assay: MTT antiproliferative assay, MDA-MB 231; assay type: cell-based, human; details: Homo sapiens, MDA-MB-231, 48 h, MTT, 48 h treatment; read-out: IC50, antiproliferative activity toward MDA-MB 231
Procedure: The cytotoxic effects of the synthesized compounds were evaluated using the MTT assay. MCF-7, MDA-MB 231 (human breast cancer), and MCF-10A (non-tumorigenic breast epithelial) cells were seeded (1–3 × 10^4 cells per well) and incubated for 24 hours at 37 °C in a humidified atmosphere containing 5% CO2.[74] Following incubation, cells were treated with serial dilutions of the test compounds prepared in DMSO. The final concentration of DMSO in all wells, including controls, was maintained below 0.5% v/v to avoid solvent-related cytotoxicity. Doxorubicin was used as a positive control for comparison of antiproliferative activity. Following 48 hours of treatment, the culture medium was gently removed, and each well received 20 μL of MTT reagent (5 mg mL^−1 in phosphate-buffered saline). The plates were incubated at 37 °C for 4 hours to facilitate the enzymatic reduction of MTT into formazan by metabolically active cells. After incubation, the solution was discarded, and 100 μL of dimethyl sulfoxide was added. The absorbance of each well was measured at 570 nm using a microplate spectrophotometer. Cell viability was determined by comparing absorbance values to those of the untreated controls and expressed as a percentage. GraphPad Prism software was used to plot dose–response curves and calculate IC50 values.

CCOC(=O)/C(C#N)=C/c1ccc(Oc2c(C)c3cc(Br)c(O)c(Br)c3[nH]c2=O)cc1 [Compound 7, ethyl (E)-2-cyano-3-(4-((6,8-dibromo-7-hydroxy-4-methyl-2-oxo-1,2-dihydroquinolin-3-yl)oxy)phenyl)acrylate]
Bax expression relative to untreated control (Bax): 5.22 fold
hepatic GSH ([1]; EAC + compound 7 (10 mg kg^−1 i.p.), EAC control 12.50 ± 0.55): 34.76 ± 1.71 pg g^−1 tissue
hepatic SOD ([1]; EAC + compound 7, EAC control 9.85 ± 0.53): 27.04 ± 0.70 U g^−1 tissue
hepatic CAT ([1]; EAC + compound 7, EAC control 11.71 ±1.42): 23.12 ± 1.09 U g^−1 tissue
hepatic MDA ([1]; EAC + compound 7, EAC control 53.57 ± 9.6): 17.04 ± 0.64 nmol g^−1 tissue
hepatic MDA ([1]; compound 7 control group, no EAC): 10.77 ± 0.70 nmol g^−1 tissue
hepatic GSH ([1]; compound 7 control group, no EAC, untreated 61.4 ± 2.99): 72.73 ± 1.37 pg g^−1 tissue
hepatic CAT ([1]; compound 7 control group, no EAC, untreated 65.23 ± 1.97): 60.88 ± 2.66 U g^−1 tissue
hepatic SOD ([1]; compound 7 control group, no EAC, untreated 77.56 ± 4.02): 77.05 ± 1.84 U g^−1 tissue
reduction in viable EAC cells ([2]; 2.5 mg kg^−1, vs EAC control): 53.27%
total viable EAC cell count ([2]; 2.5 mg kg^−1 i.p. every two days, EAC control 199.33 ± 4.15): 93.15 ± 7.19 × 10^6 cells
reduction in viable EAC cells ([2]; 5 mg kg^−1, vs EAC control): 65.41%
total viable EAC cell count ([2]; 5 mg kg^−1 i.p. every two days): 68.95 ± 2.00 × 10^6 cells
reduction in viable EAC cells ([2]; 7.5 mg kg^−1, vs EAC control): 72.36%
total viable EAC cell count ([2]; 7.5 mg kg^−1 i.p. every two days): 55.10 ± 2.15 × 10^6 cells
reduction in viable EAC cells ([2]; 10 mg kg^−1, vs EAC control): 85.92%
reduction of ascitic tumor volume ([2]; 10 mg kg^−1, vs untreated EAC group): 45.25%
average ascitic tumor volume ([2]; 10 mg kg^−1, untreated EAC group 5.68 ± 0.15 mL): 3.11 ± 0.45 mL
total viable EAC cell count ([2]; 10 mg kg^−1 i.p. every two days): 28.06 ± 1.69 × 10^6 cells
reduction in viable EAC cells ([2]; 15 mg kg^−1, vs EAC control): 85.96%
total viable EAC cell count ([2]; 15 mg kg^−1 i.p. every two days): 27.98 ± 0.39 × 10^6 cells
cells in G2/M phase (MCF-7 cells; control 7.57%): 36.21%
S-phase cells (MCF-7 cells; control 21.08%): 15.75%
serum TNF-α (TNF-α; EAC + compound 7 (10 mg kg^−1 i.p.), EAC control 156.80 ± 4.71): 56.42 ± 2.01 pg/mL
serum TNF-α (TNF-α; compound 7-only control group, no EAC): 29.37 ± 1.33 pg/mL
IC50 [3]: 145 µM
serum VEGFR-II (VEGFR-II; EAC + compound 7 (10 mg kg^−1 i.p.), EAC control 85.61 ± 2.47): 30.66 ± 1.31 ng/mL
serum VEGFR-II (VEGFR-II; compound 7-only control group, no EAC, untreated 18.23 ± 0.81): 14.03 ± 0.45 ng/mL
hepatocyte hydropic degeneration ([4]; EAC + compound 7, EAC group approximately 45%): around 15%
portal inflammation grade ([4]; EAC + compound 7, EAC group grade 3): 2
liver pathology score ([4]; EAC + compound 7, EAC group score 7, untreated 0): 3
lobular inflammation grade ([4]; compound 7 only, no EAC): 1
portal inflammation grade ([4]; compound 7 only, no EAC): 2
liver pathology score ([4]; compound 7 only, no EAC, untreated 0): 4
IC50 (MDA-MB 231 cells): 9.7 ± 1.15 µM
